Laboratory results taken from patent EP4563146A1 (IRBM S.P.A., priority 2023, dated 2025).
Where two headings read alike, the source gives them in different places.

Key:
[1] = biological target: T1, West Nile Virus (WNV) NS2B-NS3 protease (West Nile virus, UniProt Q9Q6P4); assay: WNV protease inhibition assay; type: biochemical; details: Table 4; letter codes for IC50
T1 construct: NS2B1423-1470); purchased R&D 2907-SE-020
From the text: WNV protease inhibition assay

ZIKV replicon = assay: ZIKV replication inhibition assay (NanoLuc replicon in Vero cells); details: 72 h
[2] = Zika virus, Vero, read-out: ZIKA Cell_Nanoluc, Vero cells with stable ZIKV replicon, 72 h, Nano-Glo readout
[3] = Zika virus, Vero, read-out: ZIKA Cell_Nanoluc
[4] = read-out: ZIKA Cell_Nanoluc, Vero cells with stable ZIKV replicon, Nano-Glo readout

T1 sequence (Q9Q6P4 1423-1470): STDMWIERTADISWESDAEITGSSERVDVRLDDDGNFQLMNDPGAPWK
T1 sequence (Q9Q6P4 1506-1689): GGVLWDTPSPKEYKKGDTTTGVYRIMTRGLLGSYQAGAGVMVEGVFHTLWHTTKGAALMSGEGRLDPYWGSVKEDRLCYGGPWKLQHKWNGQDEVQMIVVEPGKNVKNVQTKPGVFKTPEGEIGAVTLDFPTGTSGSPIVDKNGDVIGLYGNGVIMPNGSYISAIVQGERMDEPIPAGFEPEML

SMILES | IC50 [1] | EC50 (ZIKV replicon; [2]) | EC50 (ZIKV replicon; [3]) | EC50 (ZIKV replicon; [4])
Cc1ccccc1CC(=O)Nc1cc(NC(=O)[N-]c2c[n+]([C@@H]3CCCC(CO)C3)no2)cc(C(F)(F)F)c1 (stereo partly drawn) [Example 230, (3-((1R)-3-(Hydroxymethyl)cyclohexyl)-1,2,3-oxadiazol-3-ium-5-yl)((3-(2-(o-tolyl)acetamido)-5-(trifluoromethyl)phenyl)carbamoyl)amide] | < 100 nM | 1000 to 20000 nM | – | –
CC(C(=O)Nc1cc(NC(=O)[N-]c2c[n+]([C@H]3CC[C@H](CN(C)C)CC3)no2)cc(C(F)(F)F)c1)c1ccccc1 (stereo partly drawn) [Example 164, (3-((1R,4R)-4-((Dimethylamino)methyl)-cyclohexyl)-1,2,3-oxadiazol-3-ium-5-yl)((3-(2-phenylpropanamido)-5-(trifluoromethyl)phenyl)-carbamoyl)amide] | < 100 nM | – | 100 to 1000 nM | –
O=C([N-]c1c[n+](C[C@H]2CC[C@H](c3cncnc3)CC2)no1)Nc1ccnc(C(F)(F)F)c1 [Example 187, (3-(((1R,4R)-4-(Pyrimidin-5-yl)cyclohexyl)-methyl)-1,2,3-oxadiazol-3-ium-5-yl)((2-(trifluoromethyl)pyridin-4-yl)carbamoyl)amide] | 100 to 1000 nM | – | 100 to 1000 nM | –
Cc1ncncc1[C@H]1CC[C@H](C[n+]2cc([N-]C(=O)Nc3ccnc(C(F)(F)F)c3)on2)CC1 [Example 241, (3-(((1R,4S)-4-(4-Methylpyrimidin-5-yl)cyclohexyl)methyl)-1,2,3-oxadiazol-3-ium-5-yl)((2-(trifluoromethyl)pyridin-4-yl)carbamoyl)-amide] | < 100 nM | – | 100 to 1000 nM | –
Cc1ncnc(C)c1C1=CCC(C[n+]2cc([N-]C(=O)Nc3ccnc(C(F)(F)F)c3)on2)CC1 (stereo not shown) [Example 216, (3-((4-(4,6-Dimethylpyrimidin-5-yl)cyclohex-3-en-1-yl)methyl)-1,2,3-oxadiazol-3-ium-5-yl)((2-(trifluoromethyl)pyridin-4-yl)carbamoyl)amide] | 100 to 1000 nM | 1000 to 20000 nM | – | –
CNC(=O)[C@H]1CCC[C@@H]([n+]2cc([N-]C(=O)Nc3cc(NC(=O)Cc4ccccc4C)cc(C(F)(F)F)c3)on2)C1 [Example 232, (3-((1R,3S)-3-(Methylcarbamoyl)cyclohexyl)-1,2,3-oxadiazol-3-ium-5-yl)((3-(2-(o-tolyl)acetamido)-5-(trifluoromethyl)phenyl)-carbamoyl)amide] | 100 to 1000 nM | 1000 to 20000 nM | – | –
COc1ccccc1CC(=O)Nc1cc(NC(=O)[N-]c2c[n+](C3CCC(CN(C)C)CC3)no2)cc(C(F)(F)F)c1 [Example 153, (3-((1R,4R)-4-((Dimethylamino)methyl)-cyclohexyl)-1,2,3-oxadiazol-3-ium-5-yl)((3-(2-(2-methoxyphenyl)acetamido)-5-(trifluoromethyl)-phenyl)carbamoyl)amide] | 100 to 1000 nM | – | – | 1000 to 20000 nM
CN(C)C[C@H]1CC[C@H]([n+]2cc([N-]C(=O)Nc3cc(NC(=O)Cc4ccccc4Cl)cc(C(F)(F)F)c3)on2)CC1 [Example 168, ((3-(2-(2-Chlorophenyl)acetamido)-5-(trifluoromethyl)phenyl)carbamoyl)(3-((1R,4R)-4-((dimethylamino)methyl)cyclohexyl)-1,2,3-oxadiazol-3-ium-5-yl)amide] | < 100 nM | – | 100 to 1000 nM | –
Cc1ncnc(C)c1-c1ccc(C[n+]2cc([N-]C(=O)Nc3cccc(C(F)(F)F)c3)on2)nn1 [Example 184, (3-((6-(4,6-Dimethylpyrimidin-5-yl)pyridazin-3-yl)methyl)-1,2,3-oxadiazol-3-ium-5-yl)((3-(trifluoromethyl)phenyl)carbamoyl)amide] | 100 to 1000 nM | 100 to 1000 nM | – | –
Cc1ccccc1CC(=O)Nc1cc(NC(=O)[N-]c2c[n+]([C@@H]3CCC[C@@H](C(N)=O)C3)no2)cc(C(F)(F)F)c1 [Example 235, (3-((1R,3R)-3-Carbamoylcyclohexyl)-1,2,3-oxadiazol-3-ium-5-yl)((3-(2-(o-tolyl)acetamido)-5-(trifluoromethyl)phenyl)carbamoyl)amide] | < 100 nM | – | – | 100 to 1000 nM
Cc1ncnc(C)c1-c1ccc(C[n+]2cc([N-]C(=O)N[C@@H]3CC[C@@H](C(F)(F)F)C3)on2)cc1 (racemic) [Example 256, (3-((4-(4,6-Dimethylpyrimidin-5-yl)phenyl)methyl)oxadiazol-3-ium-5-yl)-((rac-(1R,3R)-3-(trifluoromethyl)cyclopentyl)-carbamoyl)azanide] | 100 to 1000 nM | – | 1000 to 20000 nM | –
CN(C)C[C@H]1CC[C@H]([n+]2cc([N-]C(=O)Nc3cc(NC(=O)[C@H](F)c4ccccc4F)cc(C(F)(F)F)c3)on2)CC1 (single isomer, unassigned) [Example 271] | < 100 nM | – | 100 to 1000 nM | –
Cc1ccccc1CC(=O)Nc1cc(NC(=O)[N-]c2c[n+]([C@H]3CCCC[C@H]3O)no2)cc(C(F)(F)F)c1 [Example 240, (3-((1S,2R)-2-Hydroxycyclohexyl)-1,2,3-oxadiazol-3-ium-5-yl)((3-(2-(o-tolyl)acetamido)-5-(trifluoromethyl)phenyl)carbamoyl)amide] | 100 to 1000 nM | 1000 to 20000 nM | – | –
Cc1ncnc(C)c1-c1ccc(C[n+]2cc([N-]C(=O)Nc3cc(C(F)(F)F)c4ncccc4c3)on2)cc1 [Example 272, (3-(4-(4,6-Dimethylpyrimidin-5-yl)benzyl)-1,2,3-oxadiazol-3-ium-5-yl)((8-(trifluoromethyl)-quinolin-6-yl)carbamoyl)amide] | 1000 to 20000 nM | 100 to 1000 nM | – | –
Cc1ncncc1-c1ccc(C[n+]2cc([N-]C(=O)Nc3ccnc(C(F)(F)F)c3)on2)cc1 [Example 225, (3-(4-(4-Methylpyrimidin-5-yl)benzyl)-1,2,3-oxadiazol-3-ium-5-yl)((2-(trifluoromethyl)pyridin-4-yl)carbamoyl)amide] | 100 to 1000 nM | 100 to 1000 nM | – | –
Cc1ncnc(C)c1-c1ccc(C[n+]2cc([N-]C(=O)Nc3ccnc(C(C)(C)C)c3)on2)cc1 [Example 226, ((2-(tert-Butyl)pyridin-4-yl)carbamoyl)(3-(4-(4,6-dimethylpyrimidin-5-yl)benzyl)-1,2,3-oxadiazol-3-ium-5-yl)amide] | < 100 nM | 1000 to 20000 nM | – | –
CN(C)CC1CCC([n+]2cc([N-]C(=O)Nc3cc(NC(=O)Cc4ccccc4C(=O)O)cc(C(F)(F)F)c3)on2)CC1 [Example 159, ((3-(2-(2-Carboxyphenyl)acetamido)-5-(trifluoromethyl)phenyl)carbamoyl)(3-((1R,4R)-4-((dimethylamino)methyl)cyclohexyl)-1,2,3-oxadiazol-3-ium-5-yl)amide] | < 100 nM | – | – | 1000 to 20000 nM
Cc1ccccc1CC(=O)Nc1cc(NC(=O)[N-]c2c[n+]([C@@H]3CCC[C@@H](C(N)=O)C3)no2)cc(C(F)(F)F)c1 [Example 267, (3-((1R,3R)-3-Carbamoylcyclohexyl)-1,2,3-oxadiazol-3-ium-5-yl)((3-(2-(o-tolyl)acetamido)-5-(trifluoromethyl)phenyl)carbamoyl)amide] | 100 to 1000 nM | – | – | 1000 to 20000 nM
CN(C)C[C@H]1CC[C@H]([n+]2cc([N-]C(=O)Nc3cc(NC(=O)C4CCCc5ccccc54)cc(C(F)(F)F)c3)on2)CC1 (stereo partly drawn) [Example 177, (3-((1R,4R)-4-((Dimethylamino)methyl)-cyclohexyl)-1,2,3-oxadiazol-3-ium-5-yl)((3-(1,2,3,4-tetrahydronaphthalene-1-carboxamido)-5-(trifluoromethyl)phenyl)carbamoyl)amide] | 100 to 1000 nM | – | 1000 to 20000 nM | –
Cc1ccccc1CC(=O)Nc1cc(NC(=O)[N-]c2c[n+]([C@@H]3CCC[C@@H](O)C3)no2)cc(C(F)(F)F)c1 [Example 215, (3-((1R,3R)-3-Hydroxycyclohexyl)-1,2,3-oxadiazol-3-ium-5-yl)((3-(2-(o-tolyl)acetamido)-5-(trifluoromethyl)phenyl)carbamoyl)amide] | < 100 nM | < 100 nM | – | –
Cc1ccccc1CC(=O)Nc1cc(NC(=O)[N-]c2c[n+](C3CCCC(CO)C3)no2)cc(C(F)(F)F)c1 (stereo not shown) [Example 265, (3-(3-(Hydroxymethyl)cyclohexyl)-1,2,3-oxadiazol-3-ium-5-yl)((3-(2-(o-tolyl)acetamido)-5-(trifluoromethyl)phenyl)carbamoyl)amide] | 100 to 1000 nM | 1000 to 20000 nM | – | –
CN(C)C[C@H]1CC[C@H]([n+]2cc([N-]C(=O)Nc3cc(NC(=O)Cc4cccc(O)n4)cc(C(F)(F)F)c3)on2)CC1 [Example 196, (3-((1R,4R)-4-((Dimethylamino)methyl)-cyclohexyl)-1,2,3-oxadiazol-3-ium-5-yl)((3-(2-(6-hydroxypyridin-2-yl)acetamido)-5-(trifluoromethyl)phenyl)carbamoyl)amide] | 1000 to 20000 nM | – | 100 to 1000 nM | –
CN(C)C[C@H]1CC[C@H]([n+]2cc([N-]C(=O)Nc3cc(NC(=O)[C@@H](F)c4ccccc4F)cc(C(F)(F)F)c3)on2)CC1 (single isomer, unassigned) [Example 243] | < 100 nM | – | 100 to 1000 nM | –
Cc1ccccc1CC(=O)Nc1cc(NC(=O)[N-]c2c[n+](C[C@@H]3CCCC[C@H]3O)no2)cc(C(F)(F)F)c1 [Example 218, (3-(((1S,2R)-2-Hydroxycyclohexyl)methyl)-1,2,3-oxadiazol-3-ium-5-yl)((3-(2-(o-tolyl)acetamido)-5-(trifluoromethyl)phenyl)-carbamoyl)amide] | 100 to 1000 nM | 100 to 1000 nM | – | –
O=C([N-]c1c[n+](CC23CC(c4cncnc4)(C2)C3)no1)Nc1cccc(C(F)(F)F)c1 [Example 183, (3-((3-(Pyrimidin-5-yl)bicyclo[1.1.1]pentan-1-yl)methyl)-1,2,3-oxadiazol-3-ium-5-yl)((3-(trifluoromethyl)phenyl)carbamoyl)amide] | 100 to 1000 nM | 100 to 1000 nM | – | –
Cc1ccccc1CC(=O)Nc1cc(NC(=O)[N-]c2c[n+]([C@@H]3CCC[C@H](O)C3)no2)cc(C(F)(F)F)c1 [Example 214, (3-((1R,3S)-3-Hydroxycyclohexyl)-1,2,3-oxadiazol-3-ium-5-yl)((3-(2-(o-tolyl)acetamido)-5-(trifluoromethyl)phenyl)carbamoyl)amide] | 100 to 1000 nM | 1000 to 20000 nM | – | –
